Tests used:
[1] = Chemical stability of tacrolimus in ethanol as a function of concentration (HPLC); format: physicochemical; conditions: 55 °C, 26 days
Method: The chemical stability of tacrolimus in ethanol at different concentrations ranging from 100 to 400 mg/ml when stored at 55° C. was investigated.
Samples were analyzed using reverse phase HPLC with an acetonitrile-water gradient and UV detection. Samples were prepared in a non-aqueous medium, i.e., acetonitrile, to limit the interconversion of tautomers and to promote stability. Column temperature was set at 60° C. to further promote equilibrium between the cis-trans isomers. The gradient was set at 5% acetronitrile with a run time of 20 minutes. Acetic acid (0.002%) was added to mobile phase A (water). A solution of tacrolimus in 1:1 acetonitrile-water was incubated at 55° C. for 45 minutes to obtain an equilibrium mixture of the 3 tautomers so that retention times of each tautomer could be obtained.

[2] = Solubility of tacrolimus in ethanol and hydrofluoroalkanes; format: physicochemical
[3] = Aerosol exposure study of tacrolimus in rats, blood and lung pharmacokinetics; format: in vivo, male Sprague-dawley rats; conditions: rat; for AUClast / Tmax: lung; for Cmax: 30 min aerosol exposure
Method: A total of 54 male Sprague-dawley rats of approximately 250 g body weight were exposed to aerosols of tacrolimus (in a propylene-glycol:ethanol mixture) generated by jet-nebulizer for 30 minutes. […] Estimated deposited doses for the 30 minute exposure (assuming 10% deposition efficiency) were 0.072 and 0.256 mg/kg for the “low” and “high” dose groups. Lung and blood samples were obtained for groups of animals (n=3/time point).

calcineurin = conditions: as a calcineurin inhibitor; Kino et al. 1987; cited from earlier work
[4] = Aerosol exposure study of tacrolimus in rats, blood and lung pharmacokinetics; format: in vivo, male Sprague-dawley rats; conditions: rat
[5] = Chemical stability of tacrolimus in ethanol as a function of temperature; format: physicochemical; conditions: 200 mg/ml in ethanol, around day 30
Method: The degradant levels contained in solutions of tacrolimus dissolved in ethanol at a fixed concentration of 200 mg/ml were determined over time as a function of temperature. Samples were stored at the following temperatures: 35° C., 45° C., and 55° C.

[6] = Particle size of jet-nebulized tacrolimus aerosol; format: physicochemical; conditions: jet-nebulizer
[7] = male, Sprague-Dawley, inhaled or intranasal, blood, High Inhalation 0.256 mg/kg
[8] = male, Sprague-Dawley, inhaled or intranasal, blood, Low Inhalation 0.072 mg/kg
[9] = male, Sprague-Dawley, 0.4 mg/kg, blood, IV Bolus 0.400 mg/kg
[10] = male, Sprague-Dawley, 0.4 mg/kg, lung, IV Bolus 0.400 mg/kg

In the case of `C=CC[C@@H]1/C=C(\C)C[C@H](C)C[C@H](OC)[C@H]2O[C@@](O)(C(=O)C(=O)N3CCCC[C@H]3C(=O)O[C@H](/C(C)=C/[C@@H]3CC[C@@H](O)[C@H](OC)C3)[C@H](C)[C@@H](O)CC1=O)[C@H](C)C[C@@H]2OC` [tacrolimus, 17-allyl-1,14-dihydroxy-12-[2-(4-hydroxy-3-methoxycyclohexyl)-1-methylvinyl]-23,25-dimethyoxy-13,19,21,27-tetramethyl-11,28-dioxa-4-azatricyclo-[22.3.1.0^4,9]octacos-18-ene-2,3,10,16-tetraone], the degradation of tacrolimus ([1]; 100 mg/ml in ethanol) is reported as “approximately 7%”, the degradation of tacrolimus ([1]; 400 mg/ml in ethanol) is reported as “less than 1%” and the solubility in ethanol ([2]; ethanol) is reported as “readily soluble”. For the same compound, the solubility in hydrofluoroalkanes ([2]; hydrofluoroalkanes) was “essentially insoluble”, the AUClast ([3]; High Inhalation 0.256 mg/kg) was 22750 ng·h/g and the AUClast ([3]; Low Inhalation 0.072 mg/kg) was 19722 ng·h/g. The Cmax [3, 7] was 149 ng/mL, the AUC(0-t) [3, 7] was 194 ng·h/mL and the Cmax [3, 8] was 40 ng/mL. For the same compound, the AUC(0-t) [3, 8] was 121 ng·h/mL, the half-life [3, 8] was 179 min and the Tmax ([3]; male, Sprague-Dawley, inhaled or intranasal, High Inhalation 0.256 mg/kg) was 4.98 min. The Tmax ([3]; male, Sprague-Dawley, inhaled or intranasal, Low Inhalation 0.072 mg/kg) was 4.98 min, the “potency relative to cyclosporine” value (calcineurin) was “up to one hundred times more potent” and the AUClast ([4]; lung, IV Bolus 0.400 mg/kg) was 334095 ng·h/g. It also gave an AUC(0-t) [4, 9] of 179 ng·h/mL, a Cmax [4, 9] of 78.2 ng/mL and a Tmax [4, 9] of 4.98 min. The half-life [4, 9] was 114 min, the Cmax [4, 10] was 19100 ng/g and the Tmax [4, 10] was 4.98 min. For the same compound, the half-life [4, 10] was 1470 min, the Tmax [4, 7] was 4.98 min and the half-life [4, 7] was 104 min. The Tmax [4, 8] was 4.98 min, the Cmax ([4]; male, Sprague-Dawley, inhaled or intranasal, lung, High Inhalation 0.256 mg/kg, 30 min aerosol exposure) was 18100 ng/g and the half-life ([4]; male, Sprague-Dawley, inhaled or intranasal, lung, High Inhalation 0.256 mg/kg) was 1400 min. The Cmax ([4]; male, Sprague-Dawley, inhaled or intranasal, lung, Low Inhalation 0.072 mg/kg, 30 min aerosol exposure) was 9960 ng/g, the half-life ([4]; male, Sprague-Dawley, inhaled or intranasal, lung, Low Inhalation 0.072 mg/kg) was 548 min and the impurity level ([5]; stored at 35 °C) was “about 3%”. The impurity level ([5]; stored at 55 °C) was “about 11%”, the “MMAD (GSD)” value ([6]; 50 mg/ml solution in propylene-glycol:ethanol mixture) was 2.53 (1.71) μm and the “MMAD (GSD)” value ([6]; 150 mg/ml solution in propylene-glycol:ethanol mixture) was 2.56 (1.73) μm.
